Experimental data: US20120289884A1, “Fused Ring Diarylamino Photosensitizers for Phototherapy” (Mallinckrodt LLC, priority 2011, published 2012)
Like-named read-outs stand apart in the source and are kept apart here.

Tested on: U937 leukemia cancer cell line
Assay: Cell viability (phototoxicity) WST-1 assay with and without UV light;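 note: WST-1 absorbance at 480 and 600 nm after 2 h compound preincubation, 20 min UV irradiation (peak 365 nm) or none, then 24 h recovery at 37 °C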
Conditions: for IC50: Homo sapiens, U-937, 20 min; for cell viability with increasing concentration of compound, light exposure: 20 minutes light exposure; for activity under the photolytic conditions (in words): UV-A/UV-B light
[1] = read-out: VC50/20, U937 cells, 20 minutes UV light exposure

Protocol: The compounds were dissolved in DMSO (8 mM) and diluted with the cell culture media such that the amount of the DMSO exposed to the cells remained below 0.5% (64 mM). After light exposure, cell viability is assessed using a WST-1 (4-[3-(4-Iodophenyl)-2-(4-nitrophenyI)-2H-5-tetrazolio]-1, 3-benzene disulfonate) cell proliferation assay (Roche Diagnostics, NJ, USA). At the end of 22 hours, WST-1 is added to each well of plate. After 2 hours of incubation, the metabolic activity is quantified by absorbance measurements at 480nm and 600nm using a Synergy 4 plate reader (BioTEK Instruments, VT, USA). The number of viable cells is determined and percent viability is determined:
Viability measurements are analyzed to provide VC50/20 values which is defined as the concentration at which 50% decrease in cell viability is observed when the cells are exposed to light and the photosensitizes for 20 minutes.
Photoxicity of diarylamines were tested for their photo-toxicity in U937 cells (ATCC,VA) a monocytic leukemia cell line. Cells were cultured, harvested and counted with trypan blue exclusion method to ensure 95% viability. The cells were then plated at a density of 20,000 cells/well in flat bottom 96 well plates and incubated overnight. On the following day, dilutions of the compounds to be screened were prepared in complete RPMI media and added to cells followed by a 2-hour incubation. After the preincubation time, the cells were irradiated for 20 minutes with 100 W UV lamp (Model B-100A, UVP, Upland, Calif.) with peak output at 365 nm and a bandwidth of about 50 nm. The light source was not optimized for each compound with respect to power and wavelength. The total power near the surface of the microtiter plate is about 8 mW. The temperature at the surface of the microtiter plates were kept below 37° C. with external air cooling. After light exposure, cells were allowed to recover at 37° C. in a CO2 incubator for 24 h, and thereafter the viability was assessed using a WST-1 (4-[3-(4-Iodophenyl)-2-(4-nitrophenyl)-2H-5-tetrazolio]-1,3-benzene disulfonate) cell proliferation assay (Roche Diagnostics, NJ, USA). At the end of 22 hours, WST-1 was added to each well of plate. After 2 hours of incubation, the metabolic activity was quantified by absorbance measurements at 480 nm and 600 nm using a Synergy 4 plate reader (BioTEK Instruments, VT, USA). The percent viability was calculated as [OD value of treated cells/mean OD value of control cells]×100%). The percent cell viability assay values were then plotted in Graph Pad Prism (Graph Pad Software Inc, La Jolla, Calif.) and VC50/20 values for each compound was obtained using nonlinear regression analysis of the log inhibitor versus response in a 4 parameter curve fit. Each compound was tested for minimum of n=3. The corresponding control conditions for the cell viability assays were: (a) DMSO only (no photosensitizer), no light; (b) DMSO only (no photosensitizer) light; and (c) photosensitizer, no light (dark toxicity).
A general procedure is carried out for measuring cell viability upon exposure of U937 leukemia cells to a number of diarylamino photosensitizers of the invention and light. U937 cells are harvested and counted with trypan blue exclusion method to ensure viability. The cells are then plated at a density of 20,000 cells/well in flat bottom 96 well plates and incubated overnight. On the following day, dilutions of the compounds to be screened are prepared in complete RPMI media and added to cells followed by a 2 hour incubation. After the preincubation time, cells are exposed to UV light for various times and then allowed to recover at 37° C. in a CO2 incubator for 24 h.
The cell viability analysis is carried out using a human myeloid leukemia U937 cell line by the standard WST-1 assay.

Structure (SMILES): c1ccc2c(c1)[nH]c1ccccc12 [(FX3), carbazole]
- IC50 (read-out: VC50/20): 5560 ± 1150 nM
- IC50 [1]: ~5000 nM
- cell viability with increasing concentration of compound, light exposure (U937 cells): substantial decrease in cell viability
- activity under the photolytic conditions (in words) (U937 cells): moderately active

Structure (SMILES): c1ccc(C2c3ccccc3Nc3ccccc32)cc1 [(FX7)]
- activity under the photolytic conditions (in words) (U937 cells): less active

Structure (SMILES): C1=Cc2ccccc2Nc2ccccc21 [(FX8), 5H-Dibenz[b,f]azepine]
- IC50 (read-out: VC50/20): 2580 ± 1140 nM
- IC50 [1]: ~2580 nM
- cell viability with increasing concentration of compound, light exposure (U937 cells): substantial decrease in cell viability
- activity under the photolytic conditions (in words) (U937 cells): very active

Structure (SMILES): c1ccc2c(c1)Cc1ccccc1N2 [(FX9), acridan]
- IC50 (read-out: VC50/20): 680 ± 110 nM
- IC50 [1]: 680 nM
- cell viability with increasing concentration of compound, light exposure (U937 cells): substantial decrease in cell viability
- activity under the photolytic conditions (in words) (U937 cells): very potent
- cell viability with increasing concentration of compound, no light exposure (dark toxicity) (U937 cells, no light exposure): no substantial decrease in cell viability

Structure (SMILES): c1ccc2c(c1)Nc1ccccc1S2 [(FX10), phenothiazine]
- IC50 (read-out: VC50/20): 1390 ± 110 nM
- IC50 [1]: ~1390 nM
- cell viability with increasing concentration of compound, light exposure (U937 cells): substantial decrease in cell viability
- activity under the photolytic conditions (in words) (U937 cells): highly active

Structure (SMILES): c1ccc2c(c1)Nc1ccccc1O2 [(FX11), Phenoxazine]
- IC50 (read-out: VC50/20): 14500 ± 1540 nM
- cell viability with increasing concentration of compound, light exposure (U937 cells): substantial decrease in cell viability
- activity under the photolytic conditions (in words) (U937 cells): weakly active

Structure (SMILES): c1ccc(C2c3ccccc3Nc3ccccc32)cc1 [(FX17), 9-phenylacridan]
- IC50 (read-out: VC50/20): 170 ± 10 nM
- IC50 [1]: 170 nM
- cell viability with increasing concentration of compound, light exposure (U937 cells): substantial decrease in cell viability
- activity under the photolytic conditions (in words) (U937 cells): most potent

Structure (SMILES): CN1c2ccccc2Cc2ccccc21 [(FX19), N-methylacridan]
- activity under the photolytic conditions (in words) (U937 cells): decreased the activity

Structure (SMILES): c1ccc(Nc2ccccc2)cc1 [(FX20), Diphenylamine]
- activity under the photolytic conditions (in words) (U937 cells): inactive
